Test results: patent publication US7288654B2, “Fused-ring pyridine derivative, process for producing the same, and use” (Takeda Pharmaceutical Company Ltd, priority 2003, dated 2007)

Biological target: T1, human CCR5 (Homo sapiens, UniProt P51681)
T1 construct: expressed in transfected cells
Test: [125I]-RANTES binding inhibition in CCR5/CHO cells (CCR5 antagonist activity)
Details: test compound 1 μM, 100 pM [125I]-RANTES, room temperature, 40 minutes
Experimental: (1) Cloning of Human CCR5 Chemokine Receptor
Cloning of a CCR5 gene was conducted from human spleen cDNA by a PCR method. Using 0.5 ng of spleen cDNA (Toyobo Co., Ltd., QUICK-Clone cDNA) as a template, the PCR reaction was carried out in a DNA Thermal Cycler 480 (Perkin Elmer) using a TaKaRa EX Taq (Takara Shuzo Co., Ltd.) (reaction conditions: 30 cycles of treatments at 95° C. for 1 minute, at 60° C. for 1 minute, and at 75° C. for 5 minutes) by adding 25 pmol of primers, SEQ ID NO. 1 (sequence length: 34; sequence type: nucleic acid; number of chains: a single chain; topology: linear; sequence kind: other nucleic acid, synthetic DNA) described in Experimental Example (1) of WO 99/32100, and SEQ ID NO. 2 (sequence length: 34; sequence type: nucleic acid; number of chains: a single chain; topology: linear; sequence kind: other nucleic acid, synthetic DNA) described in Experimental Example (1) of WO 99/32100, respectively, which were prepared by referring to the base sequence of the CCR5 gene described by Samson et al. (Biochemistry 35 (11), 3362-3367 (1996)). The PCR products were subjected to agarose gel electrophoresis to collect DNA fragments of about 1.0 kb. Then, the CCR5 gene was cloned using an Original TA Cloning Kit (Funakoshi Co., Ltd.).
(2) Preparation of Plasmid for Expression of Human CCR5
The plasmids obtained above were digested with restriction enzymes XbaI (Takara Shuzo Co., Ltd.) and BamHI (Takara Shuzo Co., Ltd.), and subjected to agarose gel electrophoresis to collect DNA fragments of about 1.0 kb. The DNA fragments and a plasmid pcDNA3.1 (Funakoshi Co., Ltd.) for expression in animal cells, which was previously digested with XbaI and BamHI, were mixed and ligated by DNA Ligation Kit Ver.2 (Takara Shuzo Co., Ltd.). Transformation of E. coli JM109 competent cells (Takara Shuzo Co., Ltd.) gave plasmid pCKR5.
(3) Introduction of the Plasmid for Expression of Human CCR5 into CHO—K1 Cells and Expression Thereof
CHO—K1 cells grown in a 750 ml tissue culture flask (Becton Dickinson) using Ham's F12 medium (Nihon Pharmaceutical Co., Ltd.) containing 10% fetal bovine serum (Lifetech Oriental) were collected from the flask by using 0.5 g/L trypsin-0.2 g/L EDTA (Lifetech Oriental). The cells were then washed with PBS (Lifetech Oriental), centrifuged (1000 rpm, 5 minutes), and suspended in PBS. Next, DNA was introduced into the cells using Gene Pulser (Bio-Rad Laboratories Inc.) under the following conditions. […]
Subsequently, the Geneticin-resistant strains were cultured in the 96-well plate (Becton Dickinson), and then CCR5-expressing cells were selected from the resistant strains. […] The cells to which the ligand bound specifically, i.e., CCR5/CHO strains, were selected by measurement of radioactivity by γ-counter. […]

T1 sequence (P51681 whole entry): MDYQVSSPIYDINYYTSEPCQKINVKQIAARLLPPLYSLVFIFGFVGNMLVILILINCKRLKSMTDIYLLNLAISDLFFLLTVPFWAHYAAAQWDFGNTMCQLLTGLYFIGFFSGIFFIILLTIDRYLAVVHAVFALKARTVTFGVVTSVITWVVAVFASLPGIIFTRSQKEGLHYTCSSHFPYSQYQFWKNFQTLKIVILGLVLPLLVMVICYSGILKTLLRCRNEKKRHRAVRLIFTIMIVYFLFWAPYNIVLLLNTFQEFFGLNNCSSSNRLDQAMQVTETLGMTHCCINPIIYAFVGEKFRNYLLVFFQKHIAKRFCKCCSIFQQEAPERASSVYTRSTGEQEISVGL

Structure (SMILES) | Binding Inhibitory Ratio (%)
CCCCOCCOc1ccc(-c2cnc3c(c2)C=C(C(=O)Nc2ccc([S@@+]([O-])Cc4cncn4CCC)cc2)CCCN3CC(C)C)cc1 [Compound 1, (S)-3-[4-(2-butoxyethoxy)phenyl]-10-isobutyl-N-[4-[[(1-propyl-1H-imidazol-5-yl)methyl]sulfinyl]phenyl]-7,8,9,10-tetrahydropyrido[2,3-b]azocine-6-carboxamide] | 94
CCCCOCCOc1ccc(-c2cnc3c(c2)C=C(C(=O)Nc2ccc([S@@+]([O-])Cc4cncn4CCC)cc2)CCCN3CCC)cc1 [Compound 2, (S)-3-[4-(2-butoxyethoxy)phenyl]-10-propyl-N-[4-[[(1-propyl-1H-imidazol-5-yl)methyl]sulfinyl]phenyl]-7,8,9,10-tetrahydropyrido[2,3-b]azocine-6-carboxamide] | 93
CCCCOCCOc1ccc(-c2cnc3c(c2)C=C(C(=O)Nc2ccc([S@@+]([O-])Cc4cncn4CCC)cc2)CCN3CC(C)C)cc1 [Compound 3, (S)-3-[4-(2-butoxyethoxy)phenyl]-9-isobutyl-N-[4-[[(1-propyl-1H-imidazol-5-yl)methyl]sulfinyl]aniline]-8,9-dihydro-7H-pyrido[2,3-b]azepine-6-carboxamide] | 100
CCCCOCCOc1ccc(-c2cnc3c(c2)C=C(C(=O)Nc2ccc(CN(C)C4CCOCC4)cc2)CCN3CC(C)C)cc1 [Compound 4, 3-[4-(2-butoxyethoxy)phenyl]-9-isobutyl-N-[4-[[methyl(tetrahydro-2H-pyran-4-yl)amino]methyl]phenyl]-8,9-dihydro-7H-pyrido[2,3-b]azepine-6-carboxamide] | 100
